Reference: publication PMC7673538 (PLoS Biology, 2020)
Where “and” joins values, the source holds several entries; their conditions need not be identical. Identical values can stand only once. Like-named read-outs stand apart in the source and are kept apart here.

Experiments:
[1] = system: HRV-A2; assay: microbe, parasite or virus in culture; format: cell-based, human rhinovirus; conditions: for EC50: Human rhinovirus sp.
[2] = system: HRV-B14; assay: microbe, parasite or virus in culture; format: cell-based, human rhinovirus
[3] = system: EV-A71 (strain BrCr); format: cell-based, enterovirus A71
[4] = system: HRV-A2; format: cell-based, human rhinovirus
[5] = system: CV-B3; assay: microbe, parasite or virus in culture; format: cell-based, coxsackievirus B3; conditions: Enterovirus B
[6] = in vitro; conditions: human
[7] = system: EV-D68; assay: microbe, parasite or virus in culture; format: cell-based, enterovirus D68; conditions: for EC50: Enterovirus D
[8] = system: HeLa R19 cells

Q: With `COc1ccc(N(Cc2ccc(F)cc2)C(=O)c2ccco2)cc1` [Compound 1, N-(4-fluorobenzyl)-N-(4-methoxyphenyl)furan-2-carboxamide] as the compound, how does the “Figure 7 dose-response raw data, HRV-A2 (triplicate values)” value ([1]; Concentration 33.3333 µM) read?
A: 4.849 and 8.666 and 8.769

Q: What about the “Figure 7 dose-response raw data, HRV-A2 (triplicate values)” value ([1]; Concentration 100 µM) of the same compound?
A: 4.849 and 8.666 and 8.769

Q: And the EC50 ([1]; HRVA2, HeLa R19, read-out: EC50 HRV-A2)?
A: > 30 µM

Q: What about the EC50 ([1]; HRVA2, HeLa R19, read-out: EC50 HRV-A2 Average) of the same compound?
A: > 30 µM

Q: What about the EC50 ([1]; HRVA2, HeLa R19, read-out: EC50 HRV-A2 Experiement 3) of the same compound?
A: > 30 µM

Q: And the EC50 ([1]; HRVA2, HeLa R19, read-out: EC50 HRV-A2 Experiment 1)?
A: > 30 µM

Q: And the EC50 ([1]; HRVA2, HeLa R19, read-out: EC50 HRV-A2 Experiment 2)?
A: > 30 µM

Q: What about the “inhibition of HRV-B14 replication (in words)” value [2] of the same compound?
A: antiviral activity

Q: And the “Figure 7 dose-response raw data, HRV_B14 (triplicate values)” value (from here on “Figure 7 dose-response raw data, HRV_B14”) ([2]; Concentration 0.0046 µM)?
A: 15.2266 and 14.5606

Q: What about the “Figure 7 dose-response raw data, HRV_B14” value ([2]; Concentration 0.0137 µM) of the same compound?
A: 15.2266 and 14.5606

Q: What about the “Figure 7 dose-response raw data, HRV_B14” value ([2]; Concentration 0.0412 µM) of the same compound?
A: 15.2266 and 14.5606 and 20.943

Q: And the “Figure 7 dose-response raw data, HRV_B14” value ([2]; Concentration 0.3704 µM)?
A: 23.8668 and 30.9898 and 27.193

Q: What about the “Figure 7 dose-response raw data, HRV_B14” value ([2]; Concentration 1.1111 µM) of the same compound?
A: 29.6577 and 30.8788 and 30.9898

Q: And the “Figure 7 dose-response raw data, HRV_B14” value ([2]; Concentration 3.3333 µM)?
A: 15.2266 and 14.5606

Q: And the “Figure 7 dose-response raw data, HRV_B14” value ([2]; Concentration 11.1111 µM)?
A: 71.9426 and 62.9417 and 74.4773

Q: What about the “Figure 7 dose-response raw data, HRV_B14” value ([2]; Concentration 33.3333 µM) of the same compound?
A: 100.034 and 89.1582 and 86.605

Q: And the “Figure 7 dose-response raw data, HRV_B14” value ([2]; Concentration 100 µM)?
A: 104.147 and 89.1582 and 86.605

Q: What about the EC50 ([2]; Human rhinovirus sp., HRVB14, HeLa R19, read-out: EC50 Exp1) of the same compound?
A: 10.8 µM

Q: What about the EC50 ([2]; Human rhinovirus sp., HRVB14, HeLa R19, read-out: EC50 Exp2) of the same compound?
A: 13.9 µM

Q: What about the EC50 ([2]; Human rhinovirus sp., HRVB14, HeLa R19, read-out: EC50 HRV-B14) of the same compound?
A: 10.8 ± 1.27 µM

Q: What about the EC50 ([2]; Human rhinovirus sp., HRVB14, HeLa R19, read-out: EC50 HRV-B14 Experiement 3) of the same compound?
A: 11.1 µM

Q: What about the EC50 ([2]; Human rhinovirus sp., HRVB14, HeLa R19, read-out: EC50 HRV-B14 Experiment 1) of the same compound?
A: 12.2 µM

Q: And the EC50 ([2]; Human rhinovirus sp., HRVB14, HeLa R19, read-out: EC50 HRV-B14 Experiment 2)?
A: 9.16 µM

Q: And the EC50 ([2]; read-out: EC50 HRV-B14)?
A: 12.4 ± 1.51 µM

Q: And the “virus titer, TCID50/ml (Figure 2A)” value ([3]; compound concentration 0.001 µM)?
A: 316228 TCID50/ml

Q: And the “virus titer, TCID50/ml (Figure 2A)” value ([3]; compound concentration 0.01 µM)?
A: 316228 TCID50/ml

Q: And the “virus titer, TCID50/ml (Figure 2A)” value ([3]; compound concentration 0.1 µM)?
A: 316228 TCID50/ml

Q: What about the “virus titer, TCID50/ml (Figure 2A)” value ([3]; compound concentration 0.3 µM) of the same compound?
A: 316228 TCID50/ml

Q: And the “virus titer, TCID50/ml (Figure 2A)” value ([4]; compound concentration 0.1 µM)?
A: 316278 TCID50/ml and 312278 TCID50/ml

Q: What about the “virus titer, TCID50/ml (Figure 2A)” value ([4]; compound concentration 0.3 µM) of the same compound?
A: 169824 TCID50/ml and 100000 TCID50/ml

Q: What about the “virus titer, TCID50/ml (Figure 2A)” value ([4]; compound concentration 3 µM) of the same compound?
A: 354813 TCID50/ml

Q: And the “virus titer, TCID50/ml (Figure 2A)” value ([4]; compound concentration 100 µM)?
A: 169824 TCID50/ml and 188844 TCID50/ml

Q: What about the “virus titer, TCID50/ml (Figure 2A)” value ([4]; compound concentration 150 µM) of the same compound?
A: 354813 TCID50/ml and 588844 TCID50/ml

Q: What about the EC50 ([5]; CVB3, HAP1, read-out: EC50 Hap1 Average) of the same compound?
A: 1.57 µM

Q: And the EC50 ([5]; CVB3, HAP1, read-out: Exp 1 EC50 Hap1)?
A: 1.49 µM

Q: What about the EC50 ([5]; CVB3, HAP1, read-out: Exp 2 EC50 Hap1) of the same compound?
A: 1.65 µM

Q: What about the CC50 ([6]; CC50) of the same compound?
A: > 30 µM

Q: And the CC50 ([6]; CC50 Average)?
A: > 30 µM

Q: And the CC50 ([6]; CC50 Experiement 3)?
A: > 30 µM

Q: And the CC50 ([6]; CC50 Experiment 1)?
A: > 30 µM

Q: What about the CC50 ([6]; CC50 Experiment 2) of the same compound?
A: > 30 µM

Q: And the CC50 ([6]; CC50 HelaR19 Average)?
A: 43.9 µM

Q: And the CC50 ([6]; Exp 1 CC50)?
A: > 30 µM

Q: What about the CC50 ([6]; Exp 1 CC50 HelaR19) of the same compound?
A: 40.4 µM

Q: And the CC50 ([6]; Exp2 CC50)?
A: > 30 µM

Q: And the CC50 ([6]; Exp 2 CC50 HelaR19)?
A: 47.4 µM

Q: What about the “inhibition of EV-D68 replication (in words)” value [7] of the same compound?
A: antiviral activity

Q: And the “Figure 7 dose-response raw data, EV-D68 (triplicate values)” value (shortened to “Figure 7 dose-response raw data, EV-D68”) ([7]; Concentration 0.001 µM)?
A: 8.529 and 8.161 and 15.8928

Q: And the “Figure 7 dose-response raw data, EV-D68” value ([7]; Concentration 0.0412 µM)?
A: 9.388 and 8.898 and 11.4747

Q: And the “Figure 7 dose-response raw data, EV-D68” value ([7]; Concentration 0.1235 µM)?
A: 8.529 and 8.161 and 15.8928

Q: And the “Figure 7 dose-response raw data, EV-D68” value ([7]; Concentration 0.3704 µM)?
A: 8.529 and 8.161 and 15.8928

Q: And the “Figure 7 dose-response raw data, EV-D68” value ([7]; Concentration 1.1111 µM)?
A: 105.527 and 109.089 and 109.58

Q: And the “Figure 7 dose-response raw data, EV-D68” value ([7]; Concentration 3.3333 µM)?
A: 104.422 and 100.246 and 109.335

Q: What about the “Figure 7 dose-response raw data, EV-D68” value ([7]; Concentration 10 µM) of the same compound?
A: 100.368 and 102.702 and 104.422

Q: What about the EC50 ([7]; EVD68, HeLa R19, read-out: EC50 EV-D68 Experiement 3) of the same compound?
A: 0.31 µM

Q: And the EC50 ([7]; EVD68, HeLa R19, read-out: EC50 EV-D68 Experiment 1)?
A: 0.25 µM

Q: What about the EC50 ([7]; EVD68, HeLa R19, read-out: EC50 EV-D68 Experiment 2) of the same compound?
A: 0.39 µM

Q: And the EC50 ([7]; EVD68, HeLa R19, read-out: EC50 EV-D68 strain 4310900947)?
A: 3.65 ± 0.34 µM

Q: And the EC50 ([7]; EVD68, HeLa R19, read-out: EC50 EV-D68 strain 4310901348)?
A: 4.47 ± 0.13 µM

Q: What about the EC50 ([7]; EVD68, HeLa R19, read-out: EC50 EV-D68 strain 4310902042) of the same compound?
A: 4.05 ± 0.65 µM

Q: And the EC50 ([7]; EVD68, HeLa R19, read-out: EC50 EV-D68 strain 4310902284)?
A: 2.23 ± 0.12 µM

Q: What about the EC50 ([7]; EVD68, HeLa R19, read-out: EC50 EV-D68 strain 4311000742) of the same compound?
A: 3.83 ± 0.4 µM

Q: And the EC50 ([7]; EVD68, HeLa R19, read-out: EC50 Exp2)?
A: 1.95 µM

Q: What about the “cytotoxic effect (in words)” value [8] of the same compound?
A: did not show any adverse cytotoxic effect
